The values below come from patent US9458181B2, “Cathepsin cysteine protease inhibitors” (Merck Sharp & Dohme Corp., priority 2013, dated 2016).

For one experiment, the target named is human cathepsin K (UniProt P43236). The experiment is described as follows: Cathepsin K Assay (hrbCat K). The settings on record: human cathepsin K 0.4 nM, Z-Leu-Arg-AMC 8 μM, pH 5.5, 15 min preincubation; read-out: hrbCat K IP. The class given is biochemical. Put shortly:
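Human cathepsin K (0.4 nM) in pH 5.5 MES buffer with EDTA, DTT and 10% DMSO was preincubated 15 min at room temperature with compound from a ⅓ dilution series (500-0.025 μM DMSO stocks). Z-Leu-Arg-AMC (8 μM) was then added, and AMC release was followed fluorometrically (Ex 360/Em 460 nm) for 30 min; inhibition was fitted to a dose-response model.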

Another experiment concerns the target T1, human cathepsin F (Homo sapiens, UniProt Q9UBX1).
T1 sequence (Q9UBX1 271-484): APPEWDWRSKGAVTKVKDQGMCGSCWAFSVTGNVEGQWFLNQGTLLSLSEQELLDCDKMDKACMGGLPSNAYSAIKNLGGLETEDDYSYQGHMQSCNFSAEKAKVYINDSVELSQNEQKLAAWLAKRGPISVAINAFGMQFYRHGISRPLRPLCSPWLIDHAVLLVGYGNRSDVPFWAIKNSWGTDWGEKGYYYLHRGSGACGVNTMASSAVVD
Put plainly: Cathepsin F assay (hCat F). The settings on record: human cathepsin F 10 nM, Z-Phe-Arg-AMC 8 μM, pH 5.5, 15 min preincubation; read-out: hCat F IP. It counts as biochemical. Put shortly:
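Fluorogenic read-out: cleavage of Z-Phe-Arg-AMC (8 μM in added buffer) was followed at Ex 360/Em 460 nm for 20 min, with dose-response fitting of percent inhibition. Before substrate addition, 10 nM human enzyme was incubated 15 min at room temperature with compounds (DMSO stocks 500–0.025 μM) in pH 5.5 MES/EDTA/DTT buffer containing 10% DMSO.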

On to `C[C@@H](C#N)NC(=O)[C@@H]1CC(F)(F)CC[C@H]1c1oc(C(F)(F)C(F)(F)F)nc1-c1ccc(C(=O)N2CCOCC2)cc1` [Example 137, (1R,2R)-N-((S)-1-cyanoethyl)-5,5-difluoro-2-(4-(4-(morpholine-4-carbonyl)phenyl)-2-(perfluoroethyl)oxazol-5-yl)cyclohexanecarboxamide], for which the IC50 on human cathepsin K was determined as 0.39 nM; at human cathepsin F, 295 nM.
The corresponding values for `N#CC1(NC(=O)[C@@H]2CCC(F)(F)C[C@H]2c2oc(-c3ccc(F)cc3)nc2-c2ccc(N3CCS(=O)(=O)CC3)cc2)CC1` [Example 139, (1R,2R)-N-(1-cyanocyclopropyl)-2-(4-(4-(1,1-dioxidothiomorpholino)phenyl)-2-(4-fluorophenyl)oxazol-5-yl)-4,4-difluorocyclohexane-carboxamide] are 3.84 nM and 2420 nM.
For `CS(=O)(=O)N1CCN(C(=O)c2ccc(-c3nc(C(F)(F)C(F)(F)F)oc3[C@@H]3CCC(F)(F)C[C@H]3C(=O)NC3(C#N)CC3)cc2)CC1` [Example 140, (1R,2R)-N-(1-cyanocyclopropyl)-5,5-difluoro-2-(4-(4-(4-(methylsulfonyl)piperazine-1-carbonyl)phenyl)-2-(perfluoroethyl)oxazol-5-yl)cyclohexanecarboxamide] the same measures were 1.93 nM and 372 nM.
The corresponding values for `C[C@@H](C#N)NC(=O)[C@@H]1CCCC[C@H]1c1oc(-c2ccc(F)cc2)nc1-c1ccc(N2CC[S+]([O-])CC2)cc1` [Example 141, (1R,2R)-N-((S)-1-cyanoethyl)-2-(2-(4-fluorophenyl)-4-(4-(1-oxidothiomorpholino)phenyl)oxazol-5-yl)cyclohexanecarboxamide] are 0.9 nM and 167 nM.
Turning to `N#CC1(NC(=O)[C@@H]2C[C@@H](F)CC[C@H]2c2oc(C(F)(F)F)nc2-c2ccc(N3CCS(=O)(=O)CC3)cc2)CC1` [Example 146, (1R,2R,5S)-N-(1-cyanocyclopropyl)-2-(4-(4-(1,1-dioxidothiomorpholino)phenyl)-2-(trifluoromethyl)oxazol-5-yl)-5-fluorocyclohexane-carboxamide], the IC50 was 1.92 nM on human cathepsin K and 352 nM at human cathepsin F.
For the molecule `CC(C)(C)c1nc(-c2ccc(N3CCS(=O)(=O)CC3)cc2)c([C@@H]2CC[C@H](F)C[C@H]2C(=O)NC2(C#N)CC2)o1` [Example 147, (1R,2R,5S)-2-(2-(tert-butyl)-4-(4-(1,1-dioxidothiomorpholino)phenyl)oxazol-5-yl)-N-(1-cyanocyclopropyl)-5-fluorocyclohexane-carboxamide], the IC50 on human cathepsin K is 1.5 nM; on human cathepsin F, 2410 nM.
Consider `CC(C)[C@@H](C#N)NC(=O)[C@@H]1CC(F)(F)CC[C@H]1c1oc(C(F)(F)C(F)(F)F)nc1-c1ccc(C(=O)N2CCOCC2)cc1` [Example 148, (1R,2R)-N-((S)-1-cyano-2-methylpropyl)-5,5-difluoro-2-(4-(4-(morpholine-4-carbonyl)phenyl)-2-(perfluoroethyl)oxazol-5-yl)cyclohexanecarboxamide], for which the IC50 at human cathepsin K is 1.03 nM; at human cathepsin F it was 280 nM.
The corresponding values for `N#CC1(NC(=O)[C@@H]2CCC(F)(F)C[C@H]2c2oc(C(F)(F)C(F)(F)F)nc2-c2ccc(N3CCS(=O)(=O)CC3)cc2)CC1` [Example 150, (1R,2R)-N-(1-cyanocyclopropyl)-2-(4-(4-(1,1-dioxidothiomorpholino)phenyl)-2-(perfluoroethyl)oxazol-5-yl)-4,4-difluorocyclohexane-carboxamide] are 4.7 nM and no less than 10000 nM.
For `CC(C)[C@@H](C#N)NC(=O)[C@@H]1CCCC[C@H]1c1oc(-c2ccc(F)cc2)nc1-c1ccc(N2CC[S+]([O-])CC2)cc1` [Example 151, (1R,2R)-N-((S)-1-cyano-2-methylpropyl)-2-(2-(4-fluorophenyl)-4-(4-(1-oxidothiomorpholino)phenyl)oxazol-5-yl)cyclohexanecarboxamide] the same measures were 3.11 nM and 628 nM.
The corresponding values for `N#CC1(NC(=O)[C@@H]2CCCC[C@H]2c2oc(-c3ccc(F)cc3)nc2-c2ccc(N3CCc4ccccc43)cc2)CC1` [Example 152, (1R,2R)-N-(1-cyanocyclopropyl)-2-(2-(4-fluorophenyl)-4-(4-(indolin-1-yl)phenyl)oxazol-5-yl)cyclohexanecarboxamide] are 89.7 nM and 839 nM.
Turning to `N#CC1(NC(=O)[C@@H]2CCCC[C@H]2c2oc(-c3ccc(F)cc3)nc2-c2ccc(N3CCS(=O)(=O)CC3)cc2)COC1` [Example 153, (1R,2R)-N-(3-cyanooxetan-3-yl)-2-(4-(4-(1,1-dioxidothiomorpholino)phenyl)-2-(4-fluorophenyl)oxazol-5-yl)cyclohexanecarboxamide], the IC50 at human cathepsin K turned out to be 0.67 nM; on human cathepsin F it was 210 nM.
Consider `N#CC1(NC(=O)[C@@H]2CC(Cl)(Cl)CC[C@H]2c2oc(C(F)(F)C(F)(F)F)nc2-c2ccc(C(=O)N3CCOCC3)cc2)CC1` [Example 154, (1R,2R)-5,5-dichloro-N-(1-cyanocyclopropyl)-2-(4-(4-(morpholine-4-carbonyl)phenyl)-2-(perfluoroethyl)oxazol-5-yl)cyclohexanecarboxamide], for which the IC50 on human cathepsin K was 0.68 nM; at human cathepsin F, 259 nM.
The corresponding values for `N#C[C@@H](NC(=O)[C@@H]1CCCC[C@H]1c1oc(-c2ccc(F)cc2)nc1-c1ccc(N2CCS(=O)(=O)CC2)cc1)C1CC1` [Example 155, (1R,2R)-N-((S)-cyano(cyclopropyl)methyl)-2-(4-(4-(1,1-dioxidothiomorpholino)phenyl)-2-(4-fluorophenyl)oxazol-5-yl)cyclohexanecarboxamide] are 0.73 nM and 37 nM.
For `N#C[C@@H](NC(=O)[C@@H]1CCCC[C@H]1c1oc(-c2ccc(F)cc2)nc1-c1ccc(N2CCS(=O)(=O)CC2)cc1)C1CCCCC1` [Example 156, (1R,2R)-N-((S)-cyano(cyclohexyl)methyl)-2-(4-(4-(1,1-dioxidothiomorpholino)phenyl)-2-(4-fluorophenyl)oxazol-5-yl)cyclohexanecarboxamide] the same measures were 2.41 nM and 179 nM.
For `CC(C)(C)[C@@H](C#N)NC(=O)[C@@H]1CCCC[C@H]1c1oc(-c2ccc(F)cc2)nc1-c1ccc(N2CCS(=O)(=O)CC2)cc1` [Example 157, (1R,2R)-N-((S)-1-cyano-2,2-dimethylpropyl)-2-(4-(4-(1,1-dioxidothiomorpholino)phenyl)-2-(4-fluorophenyl)oxazol-5-yl)cyclohexanecarboxamide] the same measures were 289 nM and 2330 nM.
